Experimental data as given in US12729186B2, “Prodrugs for sustained releasing therapeutic agents and uses thereof” (LIANGJIANG MEDICINE CO., LTD., priority 2020, dated 2026).

Assay: Drug release assay (hydrolysis rate test in pH 7.4 / pH 2.0 buffer, HPLC)
Format: physicochemical
Conditions: for Hydrolysis constant Kh pH 2.0 / Hydrolysis constant Kh pH 7.4: Kh=-ln[100%-Release rate (%)]/t; for Release rate (%) pH 2.0 (6 h): pH 2.0 buffer solution; for Release rate (%) pH 2.0 (6 h) / Release rate (%) pH 7.4 (0.5 h) / Release rate (%) pH 7.4 (6 h): 37° C., 200 rpm, residual content relative to 0 h by HPLC; for Release rate (%) pH 7.4 (0.5 h) / Release rate (%) pH 7.4 (6 h): pH 7.4 buffer solution
Procedure: Preparation of pH2.0 Buffer Solution
Preparation of pH7.4 Buffer Solution
Method of Hydrolysis Rate Test
The compounds were dissolved in pH7.4/pH2.0 buffer solution, placed in a constant temperature shaker at 37° C. and 200 rpm, and sampled at 0 h, 0.5 h and 6 h respectively. The residual contents of the compounds relative to 0 h were tested at each time point.
The release rates (%) were calculated using the following equation: Release rate (%)=[A(0h)−A(xh)]/A(0h)×100%, (x=0, 0.5, 6), A(xh) is the peak area of compounds tested by HPLC at the indicated time point.
The hydrolysis constants (Kh) were calculated using the following equation: Hydrolysis constant Kh=−ln[100%−Release rate (%)]/t Results

Structure (SMILES) | Hydrolysis constant Kh pH 2.0 | Release rate (%) pH 2.0 (6 h) | Hydrolysis constant Kh pH 7.4 | Release rate (%) pH 7.4 (0.5 h) | Release rate (%) pH 7.4 (6 h)
Cn1nnc2c(C(=O)NC(=O)Oc3ccc(CC4CCN(C(c5ccccc5)c5ccccc5)CC4)cc3)ncn2c1=O [Example 21, 4-((1-Benzhydrylpiperidin-4-yl)methyl)phenyl (3-methyl-4-oxo-3,4-dihydroimidazo[5,1-d][1,2,3,5]tetrazine-8-carbonyl)carbamate] | <0.001 | 0% | 3.397 | 81.7% | 100%
Cn1nnc2c(C(=O)NCc3ccc(CC4CCN(C(c5ccccc5)c5ccccc5)CC4)cc3)ncn2c1=O [Example 22, N-(4-((1-benzhydrylpiperidin-4-yl)methyl)benzyl)-3-methyl-4-oxo-3,4-dihydroimidazo[5,1-d][1,2,3,5]tetrazine-8-carboxamide] | <0.001 | 0% | 0.267 | 12.5% | 85.4%
COc1cccc2c1C(=O)c1c(O)c3c(c(O)c1C2=O)C[C@@](O)(C(C)=O)C[C@@H]3O[C@H]1C[C@H](NC(=O)Oc2ccc(CN3CCN(C)CC3)cc2)[C@H](OC(C)=O)[C@H](C)O1 [Example 23, (2S,3S,4S,6R)-6-(((1S,3S)-3-acetyl-3,5,12-trihydroxy-10-methoxy-6,11-dioxo-1,2,3,4,6,11-hexahydrotetracen-1-yl)oxy)-2-methyl-4-(((4-((4-methylpiperazin-1-yl)methyl)phenoxy)carbonyl)amino)tetrahydro-2H-pyran-3-yl acetate] | 0.004 | 2.5% | 0.149 | 7.2% | 70.8%
CCCCCCOC(=O)OCn1cc(F)c(=O)[nH]c1=O [Example 24, (5-Fluoro-2,4-dioxo-3,4-dihydropyrimidin-1(2H)-yl)methyl hexyl carbonate] | <0.001 | 0% | 0.094 | 4.6% | 55.7%
COc1ccc(OC(=O)OCn2cc(F)c(=O)[nH]c2=O)cc1 [Example 25, (5-Fluoro-2,4-dioxo-3,4-dihydropyrimidin-1(2H)-yl)methyl (4-methoxyphenyl) carbonate] | 0.151 | 40.5% | 0.451 | 20.2% | 61.3%
